Test results published in patent US7875587B2, “Peptide analogues of GIP for treatment of diabetes, insulin resistance and obesity” (UUTECH Limited, priority 2004, dated 2011).
No end group written: not given here.

Tests used:
Wistar rats = assay: In vivo plasma glucose and insulin after i.p. glucose with peptide in Wistar rats; set-up: species or system rat; conditions: 10 nmol/kg i.p. with glucose
Method: In vivo biological activity of GIP and Tyr^1-glucitol GIP. Effects of GIP and Tyr^1-glucitol GIP on plasma glucose and insulin concentrations were examined using 10-12 week old male Wistar rats. The animals were housed individually in an air conditioned room and 22±2° C. with a 12 hour light/12 hour dark cycle. Drinking water and a standard rodent maintenance diet (Trouw Nutrition, Belfast, Northern Ireland) were supplied ad libitum. Food was withdrawn for an 18 hour period prior to intraperitoneal injection of glucose alone (18 mmol/kq body weight) or in combination with either GIP or Tyr^1-glucitol GIP (10 nmol/kg). Test solutions were administered in a final volume of 8 ml/kg body weight. Blood samples were collected at 0, 15, 30 and 60 minutes from the cut tip of the tail of conscious rats into chilled fluoride/heparin microcentrifuge tubes (Sarstedt, Numbrecht, Germany). Samples were centrifuged using a Beckman microcentrifuge for about 30 seconds at 13,000 g. Plasma samples were aliquoted and stored at −20° C. prior to glucose and insulin determinations. All animal studies were done in accordance with the Animals (Scientific Procedures) Act 1986.
Analyses. Plasma glucose was assayed by an automated glucose oxidase procedure using a Beckman Glucose Analyzer II [33]. Plasma insulin was determined by dextran charcoal radioimmunoassay as described previously. Incremental areas under plasma glucose and insulin area under the curve (AUC) were calculated using a computer program (CAREA) employing the trapezoidal rule with baseline subtraction. Results are expressed as mean±SEM and values were compared using the Student's unpaired t-test.

[1] = test system: obese diabetic ob/ob mice; assay: Chronic (11 days, s.c.) (Pro3)GIP administration in obese diabetic ob/ob mice; assay type: in vivo, mouse
Method: (§1) Effects of chronic (Pro^3)GIP administration on plasma glucose, insulin and glycated HbA1c in obese diabetic ob/ob mice and normal mice. Obese diabetic ob/ob mice and normal control mice aged 8-12 weeks were randomly divided into groups which received once daily subcutaneous injections (17:00 h) of either saline (0.9% w/v NaCl) or (Pro^3)GIP (25 nmol/kg body weight in saline). After 11 days, treatment was ceased. Food intake and body weight were recorded daily. Blood samples were collected from the cut tip of the tail of conscious mice into chilled fluoride/heparin coated glucose microcentrifuge tubes (Sarstedt, Numbrecht, Germany). Blood samples were immediately centrifuged using a Beckman microcentrifuge (Beckman Instruments, UK) for 30 seconds at 13000 g prior to glucose, insulin and HbA1c determinations.
Effects of chronic treatment with (Pro^3)GIP on glucose tolerance in ob/ob mice and normal mice. Plasma glucose and insulin concentrations were measured following intraperitoneal administration of glucose (18 mmol/kg body weight) in ob/ob and normal mice treated with either saline (0.9% w/v NaCl) or (Pro^3)GIP (25 nmol/kg body weight/day) for 11 days. This test was repeated 9 days after cessation of chronic (Pro^3)GIP treatment. Blood samples were collected from the cut tip of the tail of conscious mice into chilled fluoride/heparin microcentrifuge tubes (Sarstedt, Numbrecht, Germany) immediately prior to injection and at 15, 30 and 60 minutes post injection. Blood samples were immediately centrifuged using a Beckman microcentrifuge (Beckman Instruments, UK) for 30 seconds at 13000 g and stored at −20° prior to glucose and insulin determinations.
Effects of chronic treatment with (Pro^3)GIP on the glucose lowering effects of exogenous insulin in ob/ob mice. The glucose lowering effects of insulin were evaluated by measuring plasma glucose response in 11-day saline (0.9% w/v NaCl) and (Pro^3)GIP (25 nmol/kg body weight/day) treated ob/ob mice following acute intraperitoneal administration of insulin (50 U/kg bodyweight). Blood samples were collected from the cut tip of the tail of conscious mice into chilled fluoride/heparin microcentrifuge tubes (Sarstedt, Numbrecht, Germany) immediately prior to injection and at 30 and 60 minutes post injection. Blood samples were immediately centrifuged using a Beckman microcentrifuge (Beckman Instruments, UK) for 30 seconds at 13000 g and stored at −20° prior to glucose determination.
Effects of chronic treatment with (Pro^3)GIP on pancreatic insulin content and associated islet hypertrophy in ob/ob mice. Pancreatic tissue was excised from non-fasted ob/ob mice after 11 days treatment with either saline (0.9% w/v NaCl) or (Pro^3)GIP (25 nmol/kg body weight/day). Pancreatic samples were individually wrapped in aluminium foil and snap frozen in liquid nitrogen. Individual excised pancreatic samples were then either embedded, sectioned and immunohistochemically stained for insulin or permeabilised for determination of pancreatic insulin content.
Determination of HbA1c, plasma glucose and insulin concentrations. HbA1c was measured in whole blood by ion-exchange high-performance liquid chromatography using the Menari HA-8140 kit (BIOMEN, Berkshire, UK). Plasma glucose was assayed by an automated glucose oxidase procedure using a Beckman Glucose Analyzer II (Stevens, J. F., 1971, Clinica Chemica Acta 32:199-201) and plasma insulin was determined by RIA (Flatt, P. R. et al., 1981, Diabetologia 20:573-577). Incremental areas under plasma glucose and insulin curves (AUC) were calculated using a computer generated program (CAREA) employing the trapezoidal rule (Burington, R. S., 1973, Handbook of Mathematical Tables and Formulae, New York, McGraw Hill) with baseline subtraction.

normal mice = assay: Chronic (11 days) (Pro3)GIP administration in normal mice; assay type: in vivo, mouse
Method: as §1
Effects of chronic treatment with (Pro^3)GIP on glucose tolerance in ob/ob mice and normal mice. Plasma glucose and insulin concentrations were measured following intraperitoneal administration of glucose (18 mmol/kg body weight) in ob/ob and normal mice treated with either saline (0.9% w/v NaCl) or (Pro^3)GIP (25 nmol/kg body weight/day) for 11 days. […]
Determination of HbA1c, plasma glucose and insulin concentrations. HbA1c was measured in whole blood by ion-exchange high-performance liquid chromatography using the Menari HA-8140 kit (BIOMEN, Berkshire, UK). […]

[2] = 25 nmol/kg/day s.c., 11 days, vs saline
[3] = 9 days after cessation of treatment

Row | Compound | overall insulin response (AUC) compared with glucose alone (Wistar rats) | plasma glucose concentrations and AUC compared with control group (Wistar rats; vs glucose alone, 0-60 min) | HbA1c ([1]; 25 nmol/kg/day s.c., 11 days) | islet hypertrophy ([1]; 25 nmol/kg/day s.c., 11 days) | pancreatic insulin stores ([1]; 25 nmol/kg/day s.c., 11 days) | plasma glucose concentration [1, 2] | plasma insulin concentration [1, 2] | persistence of beneficial effects after cessation [1, 3] | food intake ([1]; 11 days) | decrease in body weight ([1]; 11 days, did not achieve significance) [%] | circulating insulin during glucose tolerance test ([1]; after 11 days treatment) | glucose tolerance ([1]; after 11 days treatment, i.p. glucose 18 mmol/kg) | insulin sensitivity ([1]; after 11 days, exogenous insulin 50 U/kg i.p.) | glucose tolerance in normal mice after cessation (normal mice; [3]) | glucose tolerance in normal mice (normal mice; daily treatment for 11 days)
1 | CC[C@H](C)[C@H](NC(=O)[C@H](CO)NC(=O)[C@H](Cc1ccc(O)cc1)NC(=O)[C@H](CC(=O)O)NC(=O)[C@H](CO)NC(=O)[C@@H](NC(=O)[C@H](Cc1ccccc1)NC(=O)[C@@H](NC(=O)CNC(=O)[C@H](CCC(=O)O)NC(=O)[C@H](C)NC(=O)[C@@H](N)Cc1ccc(O)cc1)[C@@H](C)O)[C@@H](C)CC)C(=O)N[C@@H](C)C(=O)N[C@@H](CCSC)C(=O)N[C@@H](CC(=O)O)C(=O)N[C@@H](CCCCN)C(=O)N[C@H](C(=O)N[C@@H](Cc1c[nH]cn1)C(=O)N[C@@H](CCC(N)=O)C(=O)N[C@@H](CCC(N)=O)C(=O)N[C@@H](CC(=O)O)C(=O)N[C@@H](Cc1ccccc1)C(=O)N[C@H](C(=O)N[C@@H](CC(N)=O)C(=O)N[C@@H](Cc1c[nH]c2ccccc12)C(=O)N[C@@H](CC(C)C)C(=O)N[C@@H](CC(C)C)C(=O)N[C@@H](C)C(=O)N[C@@H](CCC(N)=O)C(=O)N[C@@H](CCCCN)C(=O)NCC(=O)N[C@@H](CCCCN)C(=O)N[C@@H](CCCCN)C(=O)N[C@@H](CC(N)=O)C(=O)N[C@@H](CC(=O)O)C(=O)N[C@@H](Cc1c[nH]c2ccccc12)C(=O)N[C@@H](CCCCN)C(=O)N[C@@H](Cc1c[nH]cn1)C(=O)N[C@@H](CC(N)=O)C(=O)N[C@H](C(=O)N[C@H](C(=O)N[C@@H](CCC(N)=O)C(=O)O)[C@@H](C)O)[C@@H](C)CC)C(C)C)[C@@H](C)CC [GIP 1–42, reference compound] | significantly greater | significantly lower |  |  |  |  |  |  |  |  |  |  |  |  | 
2 | YAPGTFISDYSIAMDKIHQQDFVNWLLAQKGKKNDWKHNITQ [(Pro^3)GIP] |  |  | significant decreases | partial correction | significant decreases | decreases | decreases | reversed 9 days after cessation of treatment | without any change | ~7 | without change | substantially improved | significant improvement of insulin sensitivity | reversed 9 days after cessation of treatment | marked deterioration of glucose tolerance
